Assay [1] deals with L6-myotubes. Nature of the assay: Glucose uptake (3H-2-deoxyglucose) in differentiated L6-myotubes. The class given is cell-based. The conditions noted are these: compound at 10 µM (1×10^−5 M) vs isoproterenol at 10 µM, read-out: Biological example 1: glucose uptake, activity compared to that of isoproterenol. The protocol:
L6-myoblasts were grown in Dulbecco's Modified Eagle's Medium (DMEM) containing 1 g/L glucose supplemented with 10% fetal bovine serum, 2 mM L-Glutamine, 50 U/ml penicillin, 50 μg/mL streptomycin and 10 mM HEPES. Cells were plated at 1×10^5 cells per mL in 24-well plates. After reaching 90% confluence the cells were grown in medium containing 2% FBS for 7 days where upon cells differentiated into myotubes. Differentiated L6-myotubes were serum-starved overnight in medium containing 0.5% fatty-acid free BSA and stimulated with an agonist, with a final concentration of 1×10^−5 M. After 1 h 40 min the cells were washed with warm glucose free medium or PBS twice and another portion of agonist was added to the glucose free medium. After 20 min the cells were exposed to 50 nM ^3H-2-deoxyglucose for another 10 min before washed in ice cold glucose free medium or PBS three times and lysed in 400 μL/well 0.2 M NaOH for 1 h at 60° C. The cell lysate was mixed with 4 mL scintillation buffer (Emulsifier Safe, Perkin Elmer) and the radioactivity was detected in a β-counter (Tri-Carb 4810TR, Perkin Elmer). The activity for each compound is compared to that of isoproterenol.

Assay [2] relates to L6-myotubes. Nature of the assay: Measurement of intracellular cAMP levels in differentiated L6 cells. The assay is classed as cell-based. The following applies: Rattus norvegicus, L6, 0.25 h, compound at 10 µM (1×10^−5 M), 15 min, vs isoproterenol at 10 µM, read-out: Biological example 2: intracellular cAMP levels, activity compared to that of isoproterenol. The procedure: L6-myoblasts were grown in Dulbecco's Modified Eagle's Medium (DMEM) containing 1 g/L glucose supplemented with 10% fetal bovine serum, 2 mM L-Glutamine, 50 U/ml penicillin, 50 μg/mL streptomycin and 10 mM HEPES. Cells were plated at 1×10^5 cells per mL in 24-well plates. After reaching 90% confluence the cells were grown in medium containing 2% FBS for 7 days where upon cells differentiated into myotubes. Differentiated cells were serum-starved overnight and stimulated with an agonist, final concentration 1×10^−5 M, for 15 min in stimulation buffer (HBSS supplemented with 1% BSA, 5 mM HEPES and 1 mM IBMX, pH 7.4). The medium was aspirated and 100 μL of 95% EtOH was added to each well of the 24-well plate and cells were kept at −20° C. overnight. The EtOH was allowed to evaporate and 500 μL of lysis buffer (1% BSA, 5 mM HEPES and 0.3% Tween-20, pH 7.4) was added to each well. The plate was kept at −80° C. for 30 min and then at −20° C. until the day of detection when the samples were thawed. Intracellular cAMP levels were detected using an alpha screen CAMP kit (6760635D from Perkin Elmer). The activity for each compound is compared to that of isoproterenol.
(Changes in cAMP serve as a functional read-out for many G protein-coupled receptors.)

SMILES strings stand for the structures. A value given as a limit tells only on which side of the number the result lay.

As for `O[C@H](c1cccc(F)c1)C12CCC(COCc3ccc(Cl)cc3)(CC1)N2` [Example 1, (R)-(4-(((4-Chlorobenzyl)oxy)methyl)-7-azabicyclo[2.2.1]heptan-1-yl)(3-fluorophenyl)methanol], the Emax at 10 µM is more than 75% in the assay on L6-myotubes [1] and less than 25% in the assay with L6-myotubes [2].

In the case of `O[C@@H](c1cccc(F)c1)C12CCC(COCc3ccc(Cl)cc3)(CC1)N2` [Example 2, (S)-(4-(((4-Chlorobenzyl)oxy)methyl)-7-azabicyclo[2.2.1]heptan-1-yl)(3-fluorophenyl)methanol], the Emax at 10 µM was 50 to 75% in the assay on L6-myotubes [1] and less than 25% with L6-myotubes [2].

As for `O[C@H](c1cccc(F)c1)C12CCC(COCc3ccc(F)cc3)(CC1)N2` [Example 3, (R)-(4-(((4-Fluorobenzyl)oxy)methyl)-7-azabicyclo[2.2.1]heptan-1-yl)(3-fluorophenyl)methanol], the Emax at 10 µM is more than 75% in the assay on L6-myotubes [1] and 25 to 50% in the assay on L6-myotubes [2].

Take `O[C@@H](c1cccc(F)c1)C12CCC(COCc3ccc(F)cc3)(CC1)N2` [Example 4, (S)-(4-(((4-Fluorobenzyl)oxy)methyl)-7-azabicyclo[2.2.1]heptan-1-yl)(3-fluorophenyl)methanol]: the Emax at 10 µM in the assay on L6-myotubes [1] was 25 to 50%; in the assay with L6-myotubes [2] it was less than 25%.

Consider `O[C@H](c1cncc(F)c1)C12CCC(COCc3ccc(F)cc3)(CC1)N2` [Example 5, (R)-(4-(((4-Fluorobenzyl)oxy)methyl)-7-azabicyclo[2.2.1]heptan-1-yl)(5-fluoropyridin-3-yl)methanol], for which the Emax at 10 µM is more than 75% with L6-myotubes [1] and 25 to 50% in the assay with L6-myotubes [2].

Turning to `O[C@@H](c1cncc(F)c1)C12CCC(COCc3ccc(F)cc3)(CC1)N2` [Example 6, (S)-(4-(((4-Fluorobenzyl)oxy)methyl)-7-azabicyclo[2.2.1]heptan-1-yl)(5-fluoropyridin-3-yl)methanol], the Emax at 10 µM in the assay with L6-myotubes [1] is 50 to 75%; with L6-myotubes [2], less than 25%.

On to `O[C@H](c1cccc(F)c1)C12CCC(Cc3ccccc3)(CC1)N2` [Example 7, (R)-(4-Benzyl-7-azabicyclo[2.2.1]heptan-1-yl)(3-fluorophenyl)methanol], for which the Emax at 10 µM is more than 75% with L6-myotubes [1] and 25 to 50% in the assay on L6-myotubes [2].

Consider `O[C@@H](c1cccc(F)c1)C12CCC(Cc3ccccc3)(CC1)N2` [Example 8, (S)-(4-Benzyl-7-azabicyclo[2.2.1]heptan-1-yl)(3-fluorophenyl)methanol], for which the Emax at 10 µM in the assay with L6-myotubes [1] was 50 to 75%; in the assay with L6-myotubes [2], less than 25%.

`COc1ccc(CC23CCC([C@H](O)c4cccc(F)c4)(CC2)N3)cc1` [Example 9, (R)-(3-Fluorophenyl)(4-(4-methoxybenzyl)-7-azabicyclo[2.2.1]heptan-1-yl)methanol]: the Emax at 10 µM was more than 75% in the assay on L6-myotubes [1] and less than 25% in the assay with L6-myotubes [2].

For the compound `COc1ccc(CC23CCC([C@@H](O)c4cccc(F)c4)(CC2)N3)cc1` [Example 10, (S)-(3-Fluorophenyl)(4-(4-methoxybenzyl)-7-azabicyclo[2.2.1]heptan-1-yl)methanol], the Emax at 10 µM with L6-myotubes [1] was 50 to 75%; with L6-myotubes [2], less than 25%.

On to `O[C@H](c1cccc(F)c1)C12CCC(Cc3ccc(F)cc3)(CC1)N2` [Example 11, (R)-(4-(4-Fluorobenzyl)-7-azabicyclo[2.2.1]heptan-1-yl)-(3-fluoro-phenyl)methanol], for which the values for the Emax at 10 µM in the assay with L6-myotubes [1] and with L6-myotubes [2] were more than 75% and less than 25%, respectively.

As to `O[C@@H](c1cccc(F)c1)C12CCC(Cc3ccc(F)cc3)(CC1)N2` [Example 12, (S)-(4-(4-Fluorobenzyl)-7-azabicyclo[2.2.1]heptan-1-yl)-(3-fluorophenyl)methanol], the Emax at 10 µM was 50 to 75% in the assay on L6-myotubes [1] and less than 25% in the assay with L6-myotubes [2].

Take `CO[C@H]1CC[C@H](CCC23CCC([C@H](O)c4cccc(F)c4)(CC2)N3)CC1` [Example 13, (R)-(3-Fluorophenyl)(4-(2-(trans-4-methoxycyclohexyl)ethyl)-7-azabicyclo[2.2.1]heptan-1-yl)methanol]: the Emax at 10 µM in the assay on L6-myotubes [1] is more than 75%; in the assay on L6-myotubes [2] it was 50 to 75%.

For the compound `CO[C@H]1CC[C@H](CCC23CCC([C@@H](O)c4cccc(F)c4)(CC2)N3)CC1` [Example 14, (S)-(3-Fluorophenyl)(4-(2-((trans)-4-methoxycyclohexyl)ethyl)-7-aza-bicyclo[2.2.1]heptan-1-yl)methanol], the Emax at 10 µM with L6-myotubes [1] is 50 to 75%; with L6-myotubes [2], less than 25%.

For `O[C@H](c1cccc(F)c1)C12CCC(COCc3ccc(OC(F)(F)F)cc3)(CC1)N2` [Example 15, (R)-(3-Fluorophenyl)(4-(((4-(trifluoromethoxy)benzyl)oxy)methyl)-7-azabicyclo[2.2.1]heptan-1-yl)methanol], the Emax at 10 µM in the assay with L6-myotubes [1] and with L6-myotubes [2] was less than 25% throughout.

For the compound `O[C@@H](c1cccc(F)c1)C12CCC(COCc3ccc(OC(F)(F)F)cc3)(CC1)N2` [Example 16], the Emax at 10 µM in the assay with L6-myotubes [1] and with L6-myotubes [2] was less than 25% in each case.

Turning to `O[C@H](c1cncc(F)c1)C12CCC(COCc3ccc(OC(F)(F)F)cc3)(CC1)N2` [Example 17, (R)-(5-Fluoropyridin-3-yl)(4-(((4-(trifluoromethoxy)benzyl)oxy)-methyl)-7-azabicyclo[2.2.1]heptan-1-yl)methanol], the Emax at 10 µM with L6-myotubes [1] is 50 to 75%; in the assay on L6-myotubes [2], less than 25%.

With `O[C@@H](c1cncc(F)c1)C12CCC(COCc3ccc(OC(F)(F)F)cc3)(CC1)N2` [Example 18, (S)-(5-Fluoropyridin-3-yl)(4-(((4-(trifluoromethoxy)benzyl)oxy)methyl)-7-azabicyclo[2.2.1]heptan-1-yl)methanol], the Emax at 10 µM in the assay with L6-myotubes [1] and in the assay with L6-myotubes [2] was less than 25% in each case.

`O[C@H](c1cccc(F)c1)C12CCC(Cc3ccc(OC(F)(F)F)cc3)(CC1)N2` [Example 19, (R)-(3-Fluorophenyl)(4-(4-(trifluoromethoxy)benzyl)-7-azabicyclo-[2.2.1]heptan-1-yl)methanol]: the Emax at 10 µM with L6-myotubes [1] and with L6-myotubes [2] was less than 25% each time.

For the compound `O[C@@H](c1cccc(F)c1)C12CCC(Cc3ccc(OC(F)(F)F)cc3)(CC1)N2` [Example 20, (S)-(3-Fluorophenyl)(4-(4-(trifluoromethoxy)benzyl)-7-azabicyclo-[2.2.1]heptan-1-yl)methanol], the Emax at 10 µM in the assay with L6-myotubes [1] and with L6-myotubes [2] was less than 25% each time.

Consider `CS(=O)(=O)N(Cc1ccccc1)c1ccc(CC23CCC([C@H](O)c4cccc(F)c4)(CC2)N3)cc1` [Example 21], for which the figures for the Emax at 10 µM in the assay on L6-myotubes [1] and in the assay with L6-myotubes [2] were 25 to 50% and less than 25%, respectively.

Take `CS(=O)(=O)N(Cc1ccccc1)c1ccc(CC23CCC([C@@H](O)c4cccc(F)c4)(CC2)N3)cc1` [Example 22, N-Benzyl-N-(4-((4-((S)-(3-fluorophenyl)(hydroxy)methyl)-7-aza-bicyclo[2.2.1]heptan-1-yl)methyl)phenyl)methanesulfonamide]: the Emax at 10 µM was 25 to 50% with L6-myotubes [1] and less than 25% in the assay with L6-myotubes [2].

For the compound `CS(=O)(=O)N(Cc1ccccc1)c1cccc(CC23CCC([C@H](O)c4cccc(F)c4)(CC2)N3)c1` [Example 23, N-Benzyl-N-(3-((4-((R)-(3-fluorophenyl)(hydroxy)methyl)-7-aza-bicyclo[2.2.1]heptan-1-yl)methyl)phenyl)methanesulfonamide], the Emax at 10 µM with L6-myotubes [1] is 50 to 75%; with L6-myotubes [2], less than 25%.

With `CS(=O)(=O)N(Cc1ccccc1)c1cccc(CC23CCC([C@@H](O)c4cccc(F)c4)(CC2)N3)c1` [Example 24, N-Benzyl-N-(3-((4-((S)-(3-fluorophenyl)(hydroxy)methyl)-7-aza-bicyclo[2.2.1]heptan-1-yl)methyl)phenyl)methanesulfonamide], the Emax at 10 µM in the assay with L6-myotubes [1] was 50 to 75%; in the assay on L6-myotubes [2] it was less than 25%.

For `CS(=O)(=O)Nc1ccc(CC23CCC([C@H](O)c4cccc(F)c4)(CC2)N3)cc1` [Example 25, N-(4-((4-((R)-(3-Fluorophenyl)(hydroxy)methyl)-7-azabicyclo[2.2.1]-heptan-1-yl)methyl)phenyl)methanesulfonamide], the Emax at 10 µM is 50 to 75% in the assay with L6-myotubes [1] and less than 25% in the assay with L6-myotubes [2].

For the compound `CS(=O)(=O)Nc1ccc(CC23CCC([C@@H](O)c4cccc(F)c4)(CC2)N3)cc1` [Example 26, N-(4-((4-((S)-(3-Fluorophenyl)(hydroxy)methyl)-7-azabicyclo[2.2.1]-heptan-1-yl)methyl)phenyl)methanesulfonamide], the Emax at 10 µM in the assay with L6-myotubes [1] was 50 to 75%; in the assay with L6-myotubes [2], less than 25%.

For the origin of these results see patent US20250223296A1, “HYDROXYMETHYL AZABICYCLO[2.2.1]HEPTANES AND MEDICAL USES THEREOF” (ATROGI AB, priority 2022, published 2025).
